This note sets out measurements from patent US12528837B2, “Aryl substituted polymyxin derivatives” (priority 2018, dated 2026).

One data set concerns K. pneumoniae ATCC 43816. In words: Neutropenic murine thigh model. The note with it: CD-1 mice thigh, counts at 16 h, PMB in parentheses. Type of data set: in vivo. The method, then:
After rendering neutropenic (cyclophosphamide 150 mg/kg d-4, 100 mg/kg d-1), CD-1 mice (n=5) were inoculated in each thigh with approx. 10^5 cfu of K. pneumoniae ATCC43816. Mice were dosed IV with appropriate doses of PMB sulphate or test compound (equivalent weight free base) at 2, 6 and 10 h post-infection. At 16 h post-infection mice were euthanised and thighs prepared for colony counts.
In each case the decrease observed with PMB in the same experiment is shown in parentheses: […]

Data set [1] in a line: Renal toxicity in mice, separate experiment Example 17 vs PMB. Type of data set: in vivo, mouse. The note with it: sc 25 mg free base/kg, four doses at 8 hr intervals. As for the experimental part:
After the fourth dose animals were transferred into individual metabolic cages and urine collected for 24 hours for determination of urinary biomarkers. After collecting urine mice were euthanised and the kidneys harvested for histopathology.
In a separate experiment Example 17 was compared with PMB.

The test system of another data set is K. pneumoniae ATCC 13882. Description: MIC alone and with rifampicin, broth microdilution CLSI. The note with it: alone. The class given is cell-based. As for the experimental part: (§1) MIC values (μg/mL) were determined by broth microdilution under CLSI conditions.
(Broth dilution looks for growth in wells or tubes with falling amounts of substance.)

Another data set has as its system E. coli ATCC 25922. The data set is described as above. The class given is cell-based. The note with it: alone. As for the experimental part:
as §1

In the case of Polymyxin B [reference compound], the “Log drop in cfu Compared to Vehicle Control” value in the data set on K. pneumoniae ATCC 43816 (IV 0.25 mg/kg at 2, 6, 10 h) is reported as 0.2 (0.2); in the data set on K. pneumoniae ATCC 43816 (IV 1 mg/kg at 2, 6, 10 h), 5.2; in the data set with K. pneumoniae ATCC 43816 (IV 2 mg/kg at 2, 6, 10 h), 4.0; in the data set on K. pneumoniae ATCC 43816 (IV 4 mg/kg at 2, 6, 10 h) it was 5.6; with K. pneumoniae ATCC 43816 (IV […] at 2, 6, 10 h) it was 0.2. Also, the “Basophilic tubules (histopathology)” value in data set [1] (animals per grade) is reported as 4 minimal/1 mild. For the same substance, the “Tubular degeneration/necrosis (histopathology)” value in data set [1] (animals per grade) came out at 4 normal/1 minimal. Besides, the “Albumin, elevation compared with vehicle control” value in data set [1] (urine) came to 29×. Moreover, the “Cystatin C, elevation compared with vehicle control” value in data set [1] (urine) was found to be 2×. The “KIM-1, elevation compared with vehicle control” value in data set [1] (urine) was 771×. In addition, the “MIC K. pneumoniae ATCC 13882” value with K. pneumoniae ATCC 13882 was 0.25 µg/mL. Moreover, in the data set on E. coli ATCC 25922, the “MIC E. coli ATCC 25922” value worked out at 0.25 µg/mL.
